Laboratory results as given in EPA's CvTdb concentration-time database.

Assays:
Rat [1] = test: concentration in plasma after dosing; conditions: dosed: Pyridine, 5 mg/kg, iv, Male, F344
Rat [2] = test: concentration in plasma after dosing; conditions: 2 h; dosed: Pyridine; 10 mg/kg; iv; Male; F344
Rat [3] = test: concentration in plasma after dosing; conditions: 2 h; dosed: Pyridine; 5 mg/kg; iv; Male; F344
Mouse [4] = test: concentration in plasma after dosing; conditions: 0.25 h; dosed: 2-Hydroxy-4-methoxybenzophenone; 500 mg/kg; oral; Male; B6C3F1
Rat [5] = test: concentration in plasma after dosing; conditions: 10 min; dosed: 2-Hydroxy-4-methoxybenzophenone; 100 mg/kg; oral; Male; F344
Mouse [6] = test: concentration in plasma after dosing; conditions: 10 min; dosed: 2-Hydroxy-4-methoxybenzophenone; 500 mg/kg; oral; Male; B6C3F1
Rat [7] = test: concentration in plasma after dosing; conditions: dosed: 2-Hydroxy-4-methoxybenzophenone, 250 mg/kg, oral, Female, F344
Mouse [8] = test: concentration in plasma after dosing; conditions: 0.25 h; dosed: 2-Hydroxy-4-methoxybenzophenone; 250 mg/kg; oral; Female; B6C3F1
Mouse [9] = test: concentration in plasma after dosing; conditions: 3 h; dosed: 2-Hydroxy-4-methoxybenzophenone; 250 mg/kg; oral; Male; B6C3F1
Rat [10] = test: concentration in plasma after dosing; conditions: 4 h; dosed: 2-Hydroxy-4-methoxybenzophenone; 500 mg/kg; oral; Male; F344
Mouse [11] = test: concentration in plasma after dosing; conditions: 3 h; dosed: 2-Hydroxy-4-methoxybenzophenone; 50 mg/kg; iv; Female; B6C3F1
Mouse [12] = test: concentration in plasma after dosing; conditions: 2 h; dosed: 2-Hydroxy-4-methoxybenzophenone; 50 mg/kg; iv; Male; B6C3F1
Rat [13] = test: concentration in plasma after dosing; conditions: 12 h; dosed: alpha-Thujone; 25 mg/kg; oral; Male; Harlan Sprague Dawley
Rat [14] = test: concentration in brain after dosing; conditions: 0.5 h; dosed: alpha-Thujone; 50 mg/kg; oral; Female; Harlan Sprague Dawley
Rat [15] = test: concentration in brain after dosing; conditions: 3 h; dosed: alpha-Thujone; 50 mg/kg; oral; Male; Harlan Sprague Dawley
Rat [16] = test: concentration in plasma after dosing; conditions: 3 h; dosed: alpha-Thujone; 50 mg/kg; oral; Female; Harlan Sprague Dawley
Rat [17] = test: concentration in brain after dosing; conditions: 1.5 h; dosed: alpha-Thujone; 50 mg/kg; oral; Male; Harlan Sprague Dawley
Rat [18] = test: concentration in plasma after dosing; conditions: 2 min; dosed: alpha-Thujone; 50 mg/kg; oral; Female; Harlan Sprague Dawley
Rat [19] = test: concentration in plasma after dosing; conditions: 3 h; dosed: alpha-Thujone; 25 mg/kg; oral; Male; Harlan Sprague Dawley
Rat [20] = test: concentration in brain after dosing; conditions: 2 min; dosed: alpha-Thujone; 25 mg/kg; oral; Female; Harlan Sprague Dawley
Rat [21] = test: concentration in brain after dosing; conditions: 5 min; dosed: alpha-Thujone; 50 mg/kg; oral; Female; Harlan Sprague Dawley
Rat [22] = test: concentration in plasma after dosing; conditions: 1.5 h; dosed: alpha-Thujone; 25 mg/kg; oral; Male; Harlan Sprague Dawley
Rat [23] = test: concentration in brain after dosing; conditions: 10 min; dosed: alpha-Thujone; 50 mg/kg; oral; Female; Harlan Sprague Dawley
Rat [24] = test: concentration in plasma after dosing; conditions: 12 h; dosed: alpha-Thujone; 25 mg/kg; oral; Male; Harlan Sprague Dawley; remark: listed apart in the source
Rat [25] = test: concentration in brain after dosing; conditions: 5 min; dosed: alpha-Thujone; 50 mg/kg; oral; Female; Harlan Sprague Dawley; remark: listed apart in the source
Rat [26] = test: concentration in kidney after dosing; conditions: 12 h; dosed: Perfluorohexane-1-sulphonic acid – potassium salt; 16 mg/kg; oral; Female; F344
Rat [27] = test: concentration in liver after dosing; conditions: 96 h; dosed: Perfluorohexane-1-sulphonic acid – potassium salt; 16 mg/kg; oral; Female; Harlan Sprague Dawley
Rat [28] = test: concentration in kidney after dosing; conditions: 96 h; dosed: Perfluorohexane-1-sulphonic acid – potassium salt; 16 mg/kg; oral; Female; Harlan Sprague Dawley
Rat [29] = test: concentration in liver after dosing; conditions: 192 h; dosed: Perfluorohexane-1-sulphonic acid – potassium salt; 16 mg/kg; oral; Female; Harlan Sprague Dawley
Rat [30] = test: concentration in liver after dosing; conditions: 6 h; dosed: Perfluorohexane-1-sulphonic acid – potassium salt; 16 mg/kg; oral; Female; Harlan Sprague Dawley
Rat [31] = test: concentration in plasma after dosing; conditions: dosed: Perfluorohexane-1-sulphonic acid – potassium salt, 4 mg/kg, oral, Male, F344
Rat [32] = test: concentration in liver after dosing; conditions: 24 h; dosed: Perfluorohexane-1-sulphonic acid – potassium salt; 16 mg/kg; oral; Female; Harlan Sprague Dawley
Rat [33] = test: concentration in plasma after dosing; conditions: dosed: 2,4-Dichlorophenoxyacetic acid, 7.0 mg/kg, oral, Male, Sprague-Dawley
Rat [34] = test: concentration in plasma after dosing; conditions: dosed: Methyleugenol, 37 mg/kg, oral, Female, F344/N
Rat [35] = test: concentration in plasma after dosing; conditions: 3 h; dosed: Primidone; 80 mg/kg; oral; Female; F344
Rat [36] = test: concentration in plasma after dosing; conditions: 0.5 h; dosed: Primidone; 80 mg/kg; oral; Female; Harlan Sprague-Dawley
Rat [37] = test: concentration in plasma after dosing; conditions: 0.25 h; dosed: Primidone; 30 mg/kg; oral; Male; F344

c1ccncc1 [Pyridine]
Rat [1]
Conditions	concentration in plasma [ng/mL]
0.25 h	3730
6 h	1300

Conditions	concentration in plasma [ng/mL]
Rat [2]	320
Rat [3]	2920

O=C(c1ccccc1)c1ccc(O)cc1O [2,4-Dihydroxybenzophenone]
Conditions	concentration in plasma [ng/mL]
Mouse [4]	1980
Mouse [6]	1690
Mouse [8]	1050
Mouse [9]	371
Mouse [11]	32.7
Mouse [12]	266
Rat [5]	91
Rat [10]	124

Rat [7]
Conditions	concentration in plasma [ng/mL]
3 h	213
10 min	128

CC(C)[C@]12CC(=O)[C@H](C)[C@H]1C2 [alpha-Thujone]
Conditions	concentration in brain [ng/g]	concentration in plasma [ng/mL]
Rat [13]	–	20.5
Rat [14]	878	–
Rat [15]	652	–
Rat [16]	–	303
Rat [17]	1800	–
Rat [18]	–	146
Rat [19]	–	131
Rat [20]	36.5	–
Rat [21]	3080	–
Rat [22]	–	130
Rat [23]	2340	–
Rat [24]	–	11.3
Rat [25]	994	–

O=S(=O)([O-])C(F)(F)C(F)(F)C(F)(F)C(F)(F)C(F)(F)C(F)(F)F.[K+] [Perfluorohexane-1-sulphonic acid – potassium salt]
Conditions	concentration in kidney [ng/g]	concentration in liver [ng/g]
Rat [26]	37000	–
Rat [27]	–	6730
Rat [28]	6720	–
Rat [29]	–	1580
Rat [30]	–	33000
Rat [32]	–	29500

Rat [31]
Conditions	concentration in plasma [ng/mL]
6 h	28700
192 h	19100

O=C(O)COc1ccc(Cl)cc1Cl [2,4-Dichlorophenoxyacetic acid]
Rat [33]
Conditions	concentration in plasma [ng/mL]
0.25 h	8070
0.5 h	14500
2 h	4090
2.5 min	7170
3 h	3180
4 h	3720
5 h	4480
6 h	1890
10 min	14700

C=CCc1ccc(OC)c(OC)c1 [Methyleugenol]
Rat [34]
Conditions	concentration in plasma [ng/mL]
6 h	8.85
10 min	254

CCC1(c2ccccc2)C(=O)NCNC1=O [Primidone]
Conditions	concentration in plasma [ng/mL]
Rat [35]	59300
Rat [36]	22900
Rat [37]	6800
